Measured values reported in the NIST ThermoML archive (doi:10.1021/je900550v).

Settings: 101.33 kPa, Liquid; for speed of sound: Pulse-echo method; for mass density: Vibrating tube method

CC(C)C(=O)[O-].C[NH2+]CCO [2-hydroxy-N-methylethanaminium isobutyrate]
Settings | mass density [kg/m3] | speed of sound [m/s] | viscosity [mPa·s]
308.15 K | 1036.92 | 1583.1 | –
308.4 K | 1036.77 | 1582.4 | –
308.65 K | 1036.6 | 1581.7 | –
308.9 K | 1036.44 | 1581 | –
309.15 K | 1036.28 | 1580.3 | –
309.4 K | 1036.11 | 1579.6 | –
309.65 K | 1035.95 | 1578.8 | –
309.9 K | 1035.79 | 1578.2 | –
310.15 K | 1035.62 | 1577.5 | –
310.4 K | 1035.46 | 1576.7 | –
310.65 K | 1035.29 | 1576 | –
310.91 K | 1035.13 | 1575.3 | –
311.16 K | 1034.97 | 1574.6 | –
311.4 K | 1034.81 | 1573.9 | –
311.65 K | 1034.64 | 1573.2 | –
311.91 K | 1034.48 | 1572.5 | –
312.16 K | 1034.32 | 1571.8 | –
312.41 K | 1034.15 | 1571.1 | –
312.66 K | 1033.99 | 1570.4 | –
312.91 K | 1033.82 | 1569.7 | –
313.15 K | – | – | 75.78
313.16 K | 1033.66 | 1569 | –
313.4 K | 1033.49 | 1568.3 | –
313.66 K | 1033.33 | 1567.5 | –
313.9 K | 1033.16 | 1566.8 | –
314.15 K | 1033 | 1566.1 | –
314.4 K | 1032.84 | 1565.4 | –
314.65 K | 1032.67 | 1564.7 | –
314.9 K | 1032.51 | 1564 | –
315.15 K | 1032.35 | 1563.3 | –
315.41 K | 1032.18 | 1562.6 | –
315.65 K | 1032.01 | 1561.9 | –
315.91 K | 1031.85 | 1561.2 | –
316.16 K | 1031.68 | 1560.5 | –
316.41 K | 1031.52 | 1559.8 | –
316.66 K | 1031.35 | 1559.1 | –
316.91 K | 1031.18 | 1558.4 | –
317.16 K | 1031.02 | 1557.7 | –
317.4 K | 1030.86 | 1557 | –
317.66 K | 1030.69 | 1556.2 | –
317.91 K | 1030.53 | 1555.5 | –
318.15 K | – | – | 60.1
318.16 K | 1030.36 | 1554.8 | –
318.41 K | 1030.19 | 1554.1 | –
318.65 K | 1030.03 | 1553.4 | –
318.9 K | 1029.87 | 1552.7 | –
319.16 K | 1029.7 | 1552 | –
319.41 K | 1029.53 | 1551.3 | –
319.65 K | 1029.37 | 1550.6 | –
319.91 K | 1029.2 | 1549.9 | –
320.16 K | 1029.03 | 1549.2 | –
320.41 K | 1028.87 | 1548.4 | –
320.65 K | 1028.7 | 1547.7 | –
320.91 K | 1028.54 | 1547 | –
321.15 K | 1028.37 | 1546.3 | –
321.41 K | 1028.2 | 1545.6 | –
321.66 K | 1028.03 | 1544.9 | –
321.9 K | 1027.87 | 1544.2 | –
322.15 K | 1027.7 | 1543.4 | –
322.41 K | 1027.54 | 1542.7 | –
322.65 K | 1027.37 | 1542 | –
322.91 K | 1027.2 | 1541.3 | –
323.15 K | – | – | 47.96
323.16 K | 1027.03 | 1540.6 | –
323.41 K | 1026.86 | 1539.9 | –
323.65 K | 1026.69 | 1539.2 | –
323.91 K | 1026.53 | 1538.5 | –
324.16 K | 1026.36 | 1537.7 | –
324.41 K | 1026.19 | 1537 | –
324.65 K | 1026.03 | 1536.3 | –
324.9 K | 1025.86 | 1535.6 | –
325.16 K | 1025.69 | 1534.9 | –
325.4 K | 1025.52 | 1534.2 | –
325.66 K | 1025.36 | 1533.5 | –
325.9 K | 1025.19 | 1532.8 | –
326.16 K | 1025.02 | 1532.1 | –
326.41 K | 1024.85 | 1531.4 | –
326.66 K | 1024.68 | 1530.7 | –
326.9 K | 1024.52 | 1529.9 | –
327.16 K | 1024.34 | 1529.2 | –
327.4 K | 1024.18 | 1528.5 | –
327.66 K | 1024.01 | 1527.8 | –
327.9 K | 1023.84 | 1527.1 | –
328.15 K | 1023.67 | 1526.4 | –
328.41 K | 1023.5 | 1525.7 | –
328.66 K | 1023.33 | 1524.9 | –
328.9 K | 1023.16 | 1524.2 | –
329.16 K | 1022.99 | 1523.5 | –
329.4 K | 1022.82 | 1522.8 | –
329.65 K | 1022.65 | 1522 | –
329.9 K | 1022.48 | 1521.3 | –
330.16 K | 1022.32 | 1520.6 | –
330.41 K | 1022.14 | 1519.9 | –
330.66 K | 1021.98 | 1519.1 | –
330.91 K | 1021.81 | 1518.4 | –
331.16 K | 1021.63 | 1517.7 | –
331.41 K | 1021.47 | 1517 | –
331.66 K | 1021.29 | 1516.2 | –
331.91 K | 1021.13 | 1515.5 | –
332.16 K | 1020.95 | 1514.8 | –
332.41 K | 1020.78 | 1514.1 | –
332.66 K | 1020.61 | 1513.4 | –
332.91 K | 1020.44 | 1512.7 | –
333.16 K | 1020.27 | 1511.9 | –
333.41 K | 1020.1 | 1511.2 | –
333.66 K | 1019.93 | 1510.5 | –
333.91 K | 1019.76 | 1509.8 | –
334.16 K | 1019.59 | 1509.1 | –
334.41 K | 1019.42 | 1508.3 | –
334.66 K | 1019.24 | 1507.6 | –
334.91 K | 1019.07 | 1506.9 | –
335.16 K | 1018.9 | 1506.2 | –
335.41 K | 1018.73 | 1505.5 | –
335.66 K | 1018.56 | 1504.7 | –
335.91 K | 1018.38 | 1504 | –
336.16 K | 1018.22 | 1503.3 | –
336.41 K | 1018.04 | 1502.6 | –
336.66 K | 1017.87 | 1501.9 | –
336.9 K | 1017.7 | 1501.2 | –
337.16 K | 1017.53 | 1500.4 | –
337.4 K | 1017.35 | 1499.7 | –
337.66 K | 1017.18 | 1499 | –
337.9 K | 1017.01 | 1498.3 | –
338.15 K | 1016.84 | 1497.7 | –
